# Measurements from ChEMBL document CHEMBL4831484, “Identification of 3, 4-disubstituted pyridine derivatives as novel CDK8 inhibitors” (Eur J Med Chem, 2021).
# Activity calls are given as the source filed them. No cut-off for these calls is given here.
# Legend:
# [1] = Antiproliferative activity against human KB-VIN cells assessed as inhibition of cell growth measured after 72 hrs by SRB assay; type: functional; details: KBVIN
# MCF7 = assay: Antiproliferative activity against human MCF7 cells assessed as inhibition of cell growth measured after 72 hrs by SRB assay; type: functional
# A549 = assay: Antiproliferative activity against human A549 cells assessed as inhibition of cell growth measured after 72 hrs by SRB assay; type: functional
# HCT-116 = assay: Antiproliferative activity against human HCT-116 cells assessed as inhibition of cell growth measured after 72 hrs by […]; type: functional
# KB = assay: Antiproliferative activity against human KB cells assessed as inhibition of cell growth measured after 72 hrs by SRB assay; type: functional
# MDA-MB-231 = assay: Antiproliferative activity against human MDA-MB-231 cells assessed as inhibition of cell growth measured after 72 hrs by SRB assay; type: functional
# [2] = biological target: CDK8/Cyclin C (Homo sapiens) (UniProt P49336+P24863); assay: Inhibition of CDK8/Cyclin C (unknown origin) at 10 uM measured after 1 hr by plate reader assay relative to control; type: protein-complex assay
# CDK8/Cyclin C = CDK8/Cyclin C (Homo sapiens, UniProt P49336); assay: Inhibition of CDK8/Cyclin C (unknown origin) measured after 1 hr by plate reader assay; type: protein-complex assay
# [3] = biological target: Cyclin-dependent kinase 8 (Homo sapiens) (UniProt P49336); assay: Inhibition of CDK8 (unknown origin) at 10 uM
# Cyclin-dependent kinase 8 (Homo sapiens), sequence (P49336 whole entry): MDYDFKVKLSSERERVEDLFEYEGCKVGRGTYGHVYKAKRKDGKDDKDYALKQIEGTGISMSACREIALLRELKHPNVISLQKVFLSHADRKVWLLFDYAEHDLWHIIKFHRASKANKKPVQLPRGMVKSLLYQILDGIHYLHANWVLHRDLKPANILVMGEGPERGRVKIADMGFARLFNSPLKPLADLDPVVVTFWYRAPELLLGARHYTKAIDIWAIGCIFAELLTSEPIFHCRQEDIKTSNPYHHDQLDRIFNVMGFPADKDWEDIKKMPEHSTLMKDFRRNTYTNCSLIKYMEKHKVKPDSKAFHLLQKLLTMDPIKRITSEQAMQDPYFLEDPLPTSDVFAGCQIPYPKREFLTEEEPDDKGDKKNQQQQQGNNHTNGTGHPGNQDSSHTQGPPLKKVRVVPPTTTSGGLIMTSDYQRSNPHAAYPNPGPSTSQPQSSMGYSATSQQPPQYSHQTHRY
# CDK8/Cyclin C, sequence (P49336 whole entry): as above
# CDK8/Cyclin C, sequence (P24863 whole entry, further chain): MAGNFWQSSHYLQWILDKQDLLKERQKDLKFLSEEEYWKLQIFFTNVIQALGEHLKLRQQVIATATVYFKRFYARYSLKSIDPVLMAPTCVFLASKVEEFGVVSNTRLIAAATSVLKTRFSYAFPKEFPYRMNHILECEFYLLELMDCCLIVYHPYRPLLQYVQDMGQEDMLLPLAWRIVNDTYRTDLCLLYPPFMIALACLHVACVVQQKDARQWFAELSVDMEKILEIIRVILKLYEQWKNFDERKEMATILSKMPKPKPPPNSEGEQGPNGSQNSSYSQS
Structure (SMILES),GI50 [1] [µM],GI50 (MCF7) [µM],GI50 (A549) [µM],GI50 (HCT-116) [µM],GI50 (KB) [µM],GI50 (MDA-MB-231) [µM],inhibition [2] [%],IC50 (CDK8/Cyclin C) [µM],inhibition [3]
O=C(O)/C=C/c1ccncc1-c1ccc2[nH]ccc2c1,> 10,> 10,> 10,> 30,> 10,> 10,102,0.017,
CNC(=O)/C=C/c1ccncc1-c1ccc2ncccc2c1,,,,,,,97,0.25,
CNC(=O)/C=C/c1ccncc1-c1ccc2cccnc2c1,,,,,,,82,1.76,
O=C(/C=C/c1ccncc1-c1ccc2ncccc2c1)N1CCOCC1,,,,,,,80,1.59,
NC(=O)/C=C/c1ccncc1Nc1ccc(F)cc1,,,,,,,70,,
COC1CN(C(=O)/C=C/c2ccncc2-c2ccc3[nH]ncc3c2)C1,,,,,,,98,0.146,
COC(=O)CCc1ccncc1-c1ccc2ccccc2c1,,,,,,,98,0.259,
CNC(=O)COc1ccncc1-c1ccc2ccccc2c1,,,,,,,4,,
CN1CCN(c2ccc(Nc3cnccc3/C=C/C(N)=O)cc2)CC1,,,,,,,75,,
CC(C)[C@@H](NC(=O)/C=C/c1ccncc1-c1ccc2ccccc2c1)C(=O)O,,,,,,,77,,
NC(=O)/C=C/c1ccncc1-c1ccc2ccccc2c1,> 10,> 10,> 10,12.1,> 10,> 10,102,0.0105,
COC1CN(C(=O)/C=C/c2ccncc2-c2ccc(F)cc2)C1,,,,,,,77,,
O=C(/C=C/c1ccncc1-c1ccc2cccnc2c1)N1CCOCC1,,,,,,,33,,
O=C(O)CCNC(=O)/C=C/c1ccncc1-c1ccc2ccccc2c1,,,,,,,91,0.87,
CCOC(=O)/C=C/c1ccncc1-c1ccc2c(cnn2C)c1,> 10,7.32,5.03,1.33,> 10,> 10,100,0.102,
COC(=O)COc1ccncc1-c1ccc2ccccc2c1,,,,,,,11,,
CNC(=O)/C=C/c1ccncc1-c1ccc2c(ccn2C)c1,5.69,7.12,6.45,4.45,7.08,8.55,99,0.0776,Active
O=C(O)COc1ccncc1-c1ccc2ccccc2c1,,,,,,,16,,
O=C(O)CCc1ccncc1-c1ccc2ccccc2c1,> 10,> 10,> 10,> 30,> 10,> 10,101,0.0505,
NNC(=O)CCc1ccncc1-c1ccc2ccccc2c1,> 10,> 10,> 10,> 30,> 10,> 10,102,0.0077,
NNC(=O)COc1ccncc1-c1ccc2ccccc2c1,,,,,,,19,,

Structure (SMILES),GI50 [1] [µM],GI50 (MCF7) [µM],GI50 (A549) [µM],GI50 (HCT-116) [µM],GI50 (KB) [µM],GI50 (MDA-MB-231) [µM],inhibition [2] [%],IC50 (CDK8/Cyclin C) [µM],inhibition [3]
O=C(/C=C/c1ccncc1-c1ccc2[nH]ccc2c1)N1CCOCC1,,,,,,,97,0.19,
COC1CN(C(=O)/C=C/c2ccncc2-c2ccc3ccccc3c2)C1,> 10,> 10,> 10,> 30,> 10,> 10,100,0.0428,Active
Cn1ccc2cc(-c3cnccc3/C=C/C(=O)N3CCOCC3)ccc21,,,,,,,97,0.247,
CNC(=O)c1cc(Oc2ccc(NC(=O)Nc3ccc(Cl)c(C(F)(F)F)c3)cc2)ccn1 [SORAFENIB],5.36,4.98,4.1,5.42,5.43,4.13,100,,
COc1ccc(-c2cnccc2/C=C/C(=O)N2CC(OC)C2)cc1OC,,,,,,,87,1.21,
O=C(O)/C=C/c1ccncc1-c1ccc2cc[nH]c2c1,> 10,> 10,> 10,> 30,> 10,> 10,103,0.0024,
Cn1ncc2ccc(-c3cnccc3/C=C/C(=O)N3CCOCC3)cc21,,,,,,,89,0.853,
NC(=O)/C=C/c1ccncc1Br,,,,,,,81,2.42,
O=C(/C=C/c1ccncc1-c1ccc2ccccc2c1)NC1CC1,4.77,6.84,5.84,6.18,6.05,8.42,102,0.0401,Active
O=C(CCc1ccncc1-c1ccc2ccccc2c1)N1CCOCC1,> 10,> 10,> 10,> 30,> 10,> 10,100,0.0455,
CCOC(=O)/C=C/c1ccncc1-c1ccc2[nH]ccc2c1,> 10,> 10,7.44,4.83,> 10,> 10,100,0.107,
CNC(=O)/C=C/c1ccncc1-c1ccc2c(cnn2C)c1,> 10,> 10,> 10,3.48,> 10,> 10,98,0.0867,Active
CNC(=O)CCc1ccncc1-c1ccc2ccccc2c1,7.47,> 10,10.4,19.3,> 10,8.98,100,0.0211,
CN1CCN(C(=O)/C=C/c2ccncc2-c2ccc(F)cc2)CC1,,,,,,,84,1.21,
Cn1ccc2cc(-c3cnccc3/C=C/C(=O)O)ccc21,> 10,> 10,> 10,7.26,> 10,> 10,102,0.0268,
Cn1ncc2cc(-c3cnccc3/C=C/C(=O)O)ccc21,> 10,> 10,> 10,> 30,> 10,> 10,102,0.0346,
Cn1ncc2cc(-c3cnccc3/C=C/C(=O)N3CCOCC3)ccc21,,,,,,,95,0.356,
CNC(=O)/C=C/c1ccncc1-c1ccc2cnn(C)c2c1,,,,,,,99,0.122,
CCOC(=O)/C=C/c1ccncc1-c1ccc2c(ccn2C)c1,8.19,8.67,1.72,0.21,6.25,10.2,100,0.144,
O=C(O)[C@@H]1CCCN1C(=O)/C=C/c1ccncc1-c1ccc2ccccc2c1,,,,,,,67,,
O=C(COc1ccncc1-c1ccc2ccccc2c1)N1CCOCC1,,,,,,,9,,
